In US20230346986A1, “METHODS AND AGENTS FOR THE DETECTION AND TREATMENT OF CANCER” (CASE WESTERN RESERVE UNIVERSITY, priority 2019, published 2023):
pIC50: −log10 of the molar value.

Biological target: T1, PSMA (Homo sapiens, UniProt Q04609)
T1 construct: endogenous in cells; host or cells: LNcap cells
Test: Competition binding assay with 3H-ZJ24 on LNcap cells
Settings: 3H-ZJ24 12 nmol/L, 1 h at 37° C.
Method: […] used to test the binding affinity of NPs. Specifically, […] cultured in RPMI1640 medium, harvested, washed with 0.5 mM cold Tris buffer, and divided into 1.5 mL Eppendorf tubes at 5×10^5 cells per tube. […] All the tubes were then centrifuged and cells were washed three times with cold PBS. […] The concentration of ligands required to inhibit 50% of binding (IC50) was determined using GraphPad Prism 3.0.

T1 sequence (Q04609 whole entry): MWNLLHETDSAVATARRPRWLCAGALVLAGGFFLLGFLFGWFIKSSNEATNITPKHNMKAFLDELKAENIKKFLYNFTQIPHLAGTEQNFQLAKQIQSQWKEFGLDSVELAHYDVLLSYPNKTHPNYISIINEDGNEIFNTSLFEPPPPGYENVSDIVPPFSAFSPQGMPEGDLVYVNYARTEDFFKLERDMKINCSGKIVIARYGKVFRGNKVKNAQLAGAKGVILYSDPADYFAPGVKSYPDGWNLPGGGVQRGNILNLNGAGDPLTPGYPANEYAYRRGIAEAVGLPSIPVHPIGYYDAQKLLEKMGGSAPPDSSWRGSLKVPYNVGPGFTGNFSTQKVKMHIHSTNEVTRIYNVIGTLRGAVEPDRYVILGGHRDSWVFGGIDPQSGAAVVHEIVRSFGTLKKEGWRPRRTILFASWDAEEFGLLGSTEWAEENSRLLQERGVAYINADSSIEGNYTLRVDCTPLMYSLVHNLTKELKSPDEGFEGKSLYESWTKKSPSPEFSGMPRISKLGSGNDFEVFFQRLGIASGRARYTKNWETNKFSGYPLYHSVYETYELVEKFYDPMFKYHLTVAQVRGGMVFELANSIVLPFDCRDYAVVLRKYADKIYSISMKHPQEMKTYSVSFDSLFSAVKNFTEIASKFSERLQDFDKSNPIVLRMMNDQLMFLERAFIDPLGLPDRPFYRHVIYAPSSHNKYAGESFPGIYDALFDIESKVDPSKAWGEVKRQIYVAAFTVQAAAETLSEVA

Structure (SMILES): CSC[C@H](NC(=O)N[C@@H](CCC(=O)O)C(=O)O)C(=O)O [ZJ24]
- pIC50: 8.01
